What all share (assay type): biochemical
The target of one assay is T1, hPDE4D (Homo sapiens, UniProt Q08499).
T1 construct: purchased SB Drug Discovery
The assay is described as follows: PDE4 inhibition assay (IC50), Experimental Example 3. Conditions: for IC50: hPDE4D, read-out: PDE inhibition assay IC50, PDE4. The protocol:
(§1) PDE7 inhibitory assay was carried out by reacting the mixture of a compound, hPDE7B, and cAMP, and measuring the residual cAMP by a detection method using LANCE (registered trademark) Ultra cAMP Detection Kit (ParkinElmer). The compound was dissolved in DMSO, and diluted so that the concentration would become 50 times of the final concentration. The hPDE7B and cAMP were diluted with an assay buffer (50 mmol/L Tris-HCl, 1 mmol/L MgCl2, 0.1% BSA, 0.5 mmol/L DTT, pH7.5) so that the hPDE7B would have an appropriate enzyme activity and the concentration of cAMP would become 6 nmol/L. To a 96 well plate were added the compound (2 μL) (DMSO final concentration: 2%), hPDE7B (48 μL), and cAMP (50 μL) (concentration at the reaction: 3 nmol/L), and the resulting mixture was reacted at room temperature for 60 minutes. The reaction solution (20 μL) was subjected to a TR-FRET method according to the protocol specified by the kit to measure the concentration of the residual cAMP. In the assay, to a tracer solution specified by the kit was added 0.5 mmol/L of 3-isobutyl-1-methylxanthine (IBMX, nonselective PDE inhibitor) in order to stop the PDE enzyme reaction after the completion of reaction until the measurement.
(§2) The prediction of PDE7 selectivity was evaluated by comparing each IC50 value of a compound against PDE4, 8, and 10 with the IC50 value of said compound against PDE7B.
(§3) hPDE4D, hPDE8B, and hPDE10A were prepared by the same method as [Method for preparing samples 2].
(§4) PDE4, 8, and 10 inhibitory assays were carried out by the same method as [Assay procedure 1].
(§5) The reaction without a compound wad defined as “0% inhibition”, the reaction without each PDE was defined as “100% inhibition”, and the calculation of IC50 value was carried out by the same method as <Method for data calculation 1>.

Another assay concerns the target T2, Human PDE7B (hPDE7B) (Homo sapiens, UniProt Q9NP56).
T2 construct: made in house; host or cells: COS-7 cells
The assay is described as follows: Measurement of PDE7 inhibitory activity (Experimental Example 1; residual cAMP, LANCE Ultra cAMP TR-FRET). Conditions: cAMP 3 nmol/L, room temperature 60 minutes. The essentials:
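hPDE7B from transfected COS-7 cells reacted with 3 nmol/L cAMP (final) and compound (2% DMSO) in 50 mmol/L Tris-HCl pH 7.5, 1 mmol/L MgCl2, 0.1% BSA, 0.5 mmol/L DTT, 60 min at room temperature. Reaction stopped with IBMX; residual cAMP measured by TR-FRET. Inhibition scaled between no-compound and no-enzyme controls.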
A general note: In TR-FRET formats the signal depends on donor and acceptor labels being close together.

A further assay has as its target T3, hPDE8B (Homo sapiens, UniProt O95263).
T3 construct: purchased SB Drug Discovery
The assay is described as follows: PDE8 inhibition assay (IC50), Experimental Example 3. The settings on record: for IC50: hPDE8B, read-out: PDE inhibition assay IC50, PDE8. Here is the method:
as §1, §2, §3, §4, §5

For the next assay, the target named is hPDE10A (Homo sapiens, UniProt Q9Y233). The assay is described as follows: PDE10 inhibition assay (IC50), Experimental Example 3. The settings on record: for inhibition at 100 µM: at 100 μmol/L; for inhibition at 100 µM / inhibition at 10 µM: read-out: inhibition rate (%) at prescribed concentration, PDE10; for IC50: hPDE10A, read-out: PDE inhibition assay IC50, PDE10; for inhibition at 10 µM: at 10 μmol/L. Here is the method: as §1, §2, §3, §4, §5
Chain of hPDE10A (Q9Y233 290-1055 limits assumed): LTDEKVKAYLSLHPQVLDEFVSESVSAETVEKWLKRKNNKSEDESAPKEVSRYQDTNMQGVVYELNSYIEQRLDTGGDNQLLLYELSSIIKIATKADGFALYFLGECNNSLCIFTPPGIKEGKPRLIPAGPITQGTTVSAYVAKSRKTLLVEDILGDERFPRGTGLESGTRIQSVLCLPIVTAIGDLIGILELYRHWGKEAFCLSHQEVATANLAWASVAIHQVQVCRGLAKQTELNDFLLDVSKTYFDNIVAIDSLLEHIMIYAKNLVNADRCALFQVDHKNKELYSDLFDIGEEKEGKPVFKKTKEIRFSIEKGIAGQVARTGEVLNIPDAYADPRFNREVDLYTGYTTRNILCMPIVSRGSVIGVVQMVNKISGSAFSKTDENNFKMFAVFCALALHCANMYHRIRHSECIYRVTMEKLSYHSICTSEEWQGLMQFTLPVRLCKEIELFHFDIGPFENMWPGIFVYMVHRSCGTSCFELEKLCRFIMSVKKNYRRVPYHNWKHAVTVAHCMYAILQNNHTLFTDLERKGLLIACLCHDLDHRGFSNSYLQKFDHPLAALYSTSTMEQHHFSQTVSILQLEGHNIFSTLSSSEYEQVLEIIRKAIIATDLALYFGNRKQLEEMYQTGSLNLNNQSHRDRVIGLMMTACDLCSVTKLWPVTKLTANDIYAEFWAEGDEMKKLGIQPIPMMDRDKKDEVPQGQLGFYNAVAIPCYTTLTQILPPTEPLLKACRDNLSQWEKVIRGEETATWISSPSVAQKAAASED

Some results are limits rather than exact numbers.

T1 sequence (Q08499 whole entry): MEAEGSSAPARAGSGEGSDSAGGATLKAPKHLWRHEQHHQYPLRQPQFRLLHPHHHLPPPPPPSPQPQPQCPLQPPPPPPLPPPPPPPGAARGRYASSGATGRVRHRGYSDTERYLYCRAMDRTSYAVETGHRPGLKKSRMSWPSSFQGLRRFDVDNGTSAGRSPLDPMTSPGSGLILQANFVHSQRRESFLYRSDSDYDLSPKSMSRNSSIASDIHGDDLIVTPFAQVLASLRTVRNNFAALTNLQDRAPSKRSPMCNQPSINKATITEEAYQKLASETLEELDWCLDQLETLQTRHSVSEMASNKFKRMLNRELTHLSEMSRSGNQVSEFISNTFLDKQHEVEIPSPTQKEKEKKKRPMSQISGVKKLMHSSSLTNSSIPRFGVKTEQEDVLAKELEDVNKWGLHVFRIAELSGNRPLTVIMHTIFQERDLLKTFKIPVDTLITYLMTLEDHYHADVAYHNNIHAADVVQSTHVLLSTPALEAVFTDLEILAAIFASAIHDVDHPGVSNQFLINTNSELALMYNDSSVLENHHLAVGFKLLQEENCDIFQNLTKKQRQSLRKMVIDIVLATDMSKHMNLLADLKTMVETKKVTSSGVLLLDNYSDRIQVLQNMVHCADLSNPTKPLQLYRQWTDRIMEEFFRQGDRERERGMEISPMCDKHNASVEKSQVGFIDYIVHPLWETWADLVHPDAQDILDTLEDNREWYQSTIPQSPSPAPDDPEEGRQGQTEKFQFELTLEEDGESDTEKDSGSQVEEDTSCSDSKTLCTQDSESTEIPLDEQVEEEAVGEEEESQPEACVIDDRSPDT
T2 sequence (Q9NP56 whole entry): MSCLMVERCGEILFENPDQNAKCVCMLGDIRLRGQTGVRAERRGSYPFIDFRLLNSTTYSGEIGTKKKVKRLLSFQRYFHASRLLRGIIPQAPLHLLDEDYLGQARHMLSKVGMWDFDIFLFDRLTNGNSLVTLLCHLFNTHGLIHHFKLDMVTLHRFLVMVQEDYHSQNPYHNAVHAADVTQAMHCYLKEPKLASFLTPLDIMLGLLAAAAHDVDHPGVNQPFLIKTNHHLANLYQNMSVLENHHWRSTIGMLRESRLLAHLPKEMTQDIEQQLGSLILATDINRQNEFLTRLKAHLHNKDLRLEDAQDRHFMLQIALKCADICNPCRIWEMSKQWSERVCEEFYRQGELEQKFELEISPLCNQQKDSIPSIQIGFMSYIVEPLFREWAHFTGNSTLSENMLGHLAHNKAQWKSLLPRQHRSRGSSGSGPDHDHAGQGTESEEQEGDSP
T3 sequence (O95263 whole entry): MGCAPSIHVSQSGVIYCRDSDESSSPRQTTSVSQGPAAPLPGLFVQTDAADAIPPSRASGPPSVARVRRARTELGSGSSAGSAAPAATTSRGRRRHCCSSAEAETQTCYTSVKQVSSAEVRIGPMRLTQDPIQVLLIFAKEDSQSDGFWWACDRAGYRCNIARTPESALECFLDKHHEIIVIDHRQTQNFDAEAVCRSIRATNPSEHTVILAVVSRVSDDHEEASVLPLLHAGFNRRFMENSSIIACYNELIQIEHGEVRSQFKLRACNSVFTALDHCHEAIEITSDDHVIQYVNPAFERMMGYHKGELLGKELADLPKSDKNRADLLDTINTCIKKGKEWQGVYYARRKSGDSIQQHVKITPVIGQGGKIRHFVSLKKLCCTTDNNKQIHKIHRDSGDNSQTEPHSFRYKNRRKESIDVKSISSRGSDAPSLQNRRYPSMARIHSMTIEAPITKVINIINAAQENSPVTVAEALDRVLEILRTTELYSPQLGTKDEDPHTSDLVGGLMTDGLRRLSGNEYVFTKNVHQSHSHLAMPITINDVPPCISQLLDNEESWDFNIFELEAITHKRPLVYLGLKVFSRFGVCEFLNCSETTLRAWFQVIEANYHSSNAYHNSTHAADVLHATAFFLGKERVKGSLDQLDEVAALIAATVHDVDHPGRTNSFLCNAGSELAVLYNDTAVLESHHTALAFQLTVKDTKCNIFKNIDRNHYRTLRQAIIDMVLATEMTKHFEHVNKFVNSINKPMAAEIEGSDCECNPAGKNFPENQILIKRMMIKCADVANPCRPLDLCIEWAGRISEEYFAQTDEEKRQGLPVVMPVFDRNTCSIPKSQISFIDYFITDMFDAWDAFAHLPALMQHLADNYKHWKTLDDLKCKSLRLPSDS

`CC1CC(C)CN(c2nnc3c(N)ncc(C#N)n23)C1` (racemic) [Example 54, 8-amino-3-(3,5-dimethylpiperidin-1-yl) [1,2,4]triazolo[4,3-a]pyrazine-5-carbonitrile]: the figures for the IC50 on hPDE4D, at Human PDE7B (hPDE7B) and on hPDE8B were 7860 nM, 40 nM and 3350 nM, respectively. The inhibition at 100 µM on hPDE10A turned out to be 30%.
Turning to `CC1CCN(c2nnc3c(N)nccn23)C(C)C1` (racemic) [Example 61, 3-(2,4-dimethylpiperidin-1-yl) [1,2,4]triazolo[4,3-a]pyrazin-8-amine], the IC50 was determined as 5800 nM on hPDE4D, 60 nM against Human PDE7B (hPDE7B), 18400 nM at hPDE8B and 16300 nM on hPDE10A.
Turning to `CC1CCN(c2nnc3c(N)nccn23)C(C)C1` (racemic) [Example 62, 3-(2,4-dimethylpiperidin-1-yl) [1,2,4]triazolo[4,3-a]pyrazin-8-amine], the IC50 was found to be 4300 nM at hPDE4D, 40 nM on Human PDE7B (hPDE7B), 21300 nM at hPDE8B and 7100 nM at hPDE10A.
Take `Nc1ncnn2c(C3CCCC(F)(F)C3)nnc12` (racemic) [Example 82, 3-(3,3-difluorocyclohexyl) [1,2,4]triazolo[3,4-f][1,2,4]triazin-8-amine]: the IC50 amounted to 6210 nM at hPDE4D, 40 nM against Human PDE7B (hPDE7B), 2490 nM at hPDE8B and 17900 nM on hPDE10A.
In the case of `CC1CCC(C(F)(F)F)CC1c1nnc2c(N)ncnn12` (racemic) [Example 83, 3-[2-methyl-5-(trifluoromethyl)cyclohexyl][1,2,4]triazolo[3,4-f][1,2,4]triazin-8-amine], at hPDE4D (at 1 μmol/L, read-out: inhibition rate (%) at prescribed concentration, PDE4), the inhibition at 1 µM turned out to be 53%. Also, the values for the IC50 against Human PDE7B (hPDE7B), at hPDE8B and on hPDE10A were below 10 nM, 1330 nM and 3040 nM, respectively.
Take `C[C@H]1C[C@H](n2nnc3c(N)ncnc32)CC(C)(C)C1` (racemic) [Example 109, 3-(trans-3,3,5-trimethylcyclohexyl)-3H-[1,2,3]triazolo[4,5-d]pyrimidin-7-amine]: the IC50 on hPDE4D worked out at 99200 nM; on Human PDE7B (hPDE7B), 40 nM; on hPDE8B it was 12900 nM. The inhibition at 100 µM on hPDE10A is 24%.
On to `CC1(C)CCCC(n2nnc3c(N)ncnc32)C1` (racemic) [Example 128, 3-(3,3-dimethylcyclohexyl)-3H-[1,2,3]triazolo[4,5-d]pyrimidin-7-amine], for which the values for the IC50 on hPDE4D, against Human PDE7B (hPDE7B) and at hPDE8B were 4530 nM, 20 nM and 1310 nM, respectively. Moreover, the inhibition at 10 µM at hPDE10A was 43%.
Consider `Nc1nccn2c([C@H]3C[C@@H](C(F)(F)F)CCC3(F)F)nnc12` (racemic) [Example 172, 3-[cis-2,2-difluoro-5-(trifluoromethyl)cyclohexyl][1,2,4]triazolo[4,3-a]pyrazin-8-amine], for which the IC50 on hPDE4D was 5900 nM; at Human PDE7B (hPDE7B), below 10 nM; on hPDE8B it was 9000 nM; on hPDE10A, 21800 nM.
For `CC1CCCN(c2nnc3c(N)nccn23)C1C` (single isomer, unassigned) [Example 57, 3-(2,3-dimethylpiperidin-1-yl) [1,2,4]triazolo[4,3-a]pyrazin-8-amine], the IC50 amounted to 6400 nM at hPDE4D, 50 nM on Human PDE7B (hPDE7B), 9900 nM on hPDE8B and 8700 nM at hPDE10A.
Turning to `CC1CCC(F)(F)CC1c1nnc2c(N)ncnn12` (single isomer, unassigned) [Example 246, 3-(cis-5,5-difluoro-2-methylcyclohexyl) [1,2,4]triazolo[3,4-f][1,2,4]triazin-8-amine], the figures for the 50% inhibitory concentration (IC50) at hPDE4D, at Human PDE7B (hPDE7B) and on hPDE8B were 2300 nM, 3 nM and 4400 nM, respectively.
Turning to `CSc1nc(N)c2nnn(C3CCCCC3)c2n1` [Example 5, 3-cyclohexyl-5-(methylsulfanyl)-3H-[1,2,3]triazolo[4,5-d]pyrimidin-7-amine], the results for the IC50 on hPDE4D, against Human PDE7B (hPDE7B) and at hPDE10A were 190 nM, 30 nM and 2760 nM, respectively.
For `CC1(n2nnc3c(N)ncnc32)CCCCC1` [Example 7], the IC50 at Human PDE7B (hPDE7B) is 560 nM. Further, the inhibition at 10 µM on hPDE8B (at 10 μmol/L, read-out: inhibition rate (%) at prescribed concentration, PDE8) is 50%.
`CC(C)(C)OC(=O)N1CCC[C@H](n2nnc3c(N)ncnc32)C1` [Example 13, Tert-butyl (3S)-3-(7-amino-3H-[1,2,3]triazolo[4,5-d]pyrimidin-3-yl)piperidine-1-carboxylate]: the figures for the IC50 against Human PDE7B (hPDE7B) and on hPDE8B were 160 nM and 220 nM, respectively.
`Nc1ncnc2c1nnn2[C@H]1CCCC(F)(F)C1` [Example 89]: the figures for the IC50 against Human PDE7B (hPDE7B) and on hPDE8B were 160 nM and 8600 nM, respectively. Also, the inhibition at 10 µM on hPDE10A came to 17%.
Regarding `COc1nc(N)c2nnn(C3CCCCC3)c2n1` [Example 92, 3-cyclohexyl-5-methoxy-3H-[1,2,3]triazolo[4,5-d]pyrimidin-7-amine], the values for the IC50 at hPDE4D, against Human PDE7B (hPDE7B) and on hPDE10A were 640 nM, below 10 nM and 2970 nM, respectively.
Consider `CC[C@H]1CC[C@H](n2nnc3c(N)ncnc32)CC1` [Example 100], for which the results for the half-inhibitory concentration (IC50) against Human PDE7B (hPDE7B) and at hPDE8B were 120 nM and 1800 nM, respectively.
For `C=C(C)[C@@H]1CC[C@@H](C)[C@@H](n2nnc3c(N)ncnc32)C1` [Example 106, 3-[(1S,2R,5R)-2-methyl-5-(prop-1-en-2-yl)cyclohexyl]-3H-[1,2,3]triazolo[4,5-d]pyrimidin-7-amine], in that order: 300 nM and 4380 nM.
As for `Nc1ncnc2c1nnn2C1CCCC(CF)C1` (centres unmarked) [Example 118], the IC50 on hPDE4D amounted to 4250 nM; against Human PDE7B (hPDE7B), 80 nM. The inhibition at 1 µM on hPDE8B (at 1 μmol/L, read-out: inhibition rate (%) at prescribed concentration, PDE8) came out at 55%.
For `Nc1ncnc2c1nnn2C1CCCC(COc2ccccc2)C1` (centres unmarked) [Example 125], the IC50 on Human PDE7B (hPDE7B) amounted to 210 nM; on hPDE8B, 1110 nM.
`Nc1ncnc2c1nnn2C1CCCC(COCc2ccccc2)C1` (centres unmarked) [Example 126]: the half-inhibitory concentration (IC50) against Human PDE7B (hPDE7B) was determined as 280 nM; on hPDE8B it was 2650 nM.
At Human PDE7B (hPDE7B), `Nc1ncnc2c1nnn2[C@H]1CCCN(c2ccccc2)C1` [Example 137, 3-[(3S)-1-phenylpiperidin-3-yl]-3H-[1,2,3]triazolo[4,5-d]pyrimidin-7-amine] came in with an IC50 of 190 nM. For the same compound, the inhibition at 0.1 µM at hPDE8B (at 0.1 μmol/L, read-out: inhibition rate (%) at prescribed concentration, PDE8) is 58%.
For the compound `Nc1nccn2c(C3CCC4CC4C3)nnc12` (centres unmarked) [Example 158, 3-(bicyclo[4.1.0]hept-3-yl) [1,2,4]triazolo[4,3-a]pyrazin-8-amine], the IC50 against Human PDE7B (hPDE7B) turned out to be 70 nM.
The same measure, in the same setting: as for `Nc1nccn2c([C@@H]3C[C@@H]4CC[C@H]3C4)nnc12` [Example 162], the figure is 170 nM.
`Nc1nccn2c(CC3CCCCC3)nnc12` [Example 165] displayed an IC50 against Human PDE7B (hPDE7B) of 360 nM.
Consider `Nc1nccn2c(C3CCCCO3)nnc12` (centres unmarked) [Example 168], for which the IC50 against Human PDE7B (hPDE7B) was determined as 440 nM.
For `Nc1nccn2c(-c3ccccc3)nnc12` [Example 170], the concentration for half-maximal inhibition (IC50) against Human PDE7B (hPDE7B) was 270 nM.
For the compound `Nc1ncnc2c1ncn2C1CCCCC1` [Example 182], the IC50 came out at 3420 nM at hPDE4D, 410 nM on Human PDE7B (hPDE7B) and 470 nM on hPDE10A.
`Nc1ncnc2c1c(C(F)(F)F)nn2C1CCCCC1` [Example 185]: the IC50 on hPDE4D was determined as 1840 nM; at Human PDE7B (hPDE7B), 560 nM; on hPDE10A, 360 nM.
On to `Cn1nc(C2CCCCC2)c2ncnc(N)c21` [Example 187, 3-cyclohexyl-1-methyl-1H-pyrazolo[4,3-d]pyrimidin-7-amine], for which the inhibition at 10 µM at hPDE4D (at 10 μmol/L, read-out: inhibition rate (%) at prescribed concentration, PDE4) was 38%. For the same compound, the IC50 on Human PDE7B (hPDE7B) amounted to 580 nM; at hPDE10A it was 2720 nM.
On Human PDE7B (hPDE7B), `Nc1nccn2c([C@@H]3CCCC(F)(F)C3)nnc12` [Example 213, 3-(3,3-difluorocyclohexyl) [1,2,4]triazolo[4,3-a]pyrazin-8-amine] had an IC50 of 330 nM.
Take `Nc1ncnc2c(C3CCCCC3)onc12` [Example 253, 3-(cyclohexyl)-isoxazolo[4,3-d]pyrimidin-8-amine]: the values for the IC50 at hPDE4D, on Human PDE7B (hPDE7B) and at hPDE8B were 7380 nM, 610 nM and 3810 nM, respectively.

As a reminder, the IC50 is the midpoint of a concentration-inhibition curve.

Source of the values: US20190185479A1, “BICYCLIC NITROGENATED HETEROCYCLIC COMPOUND” (MITSUBISHI TANABE PHARMA CORPORATION, priority 2016, published 2019).
